Results taken from patent US20040097454A1, “Method for modulation of cell phenotype” (University Technology Corporation, priority 1999, published 2004).

Tests used:
[1] = test system: bovine aorta smooth muscle cells (BASMC); experiment: BASMC morphology and α SM actin content on PKA inhibition; assay type: cell-based
Source text: To confirm literature reports of the importance of cAMP for the smooth muscle cell (SMC) phenotype, bovine aorta smooth muscle cells (BASMC) were examined for changes in morphology and migration upon modulation of PKA activity. These cells are from a single vascular bed and harvested from an ingrown strain of cattle. BASMC are an established model of vascular smooth muscle tissue in culture (Cucina et al., 1999, J. Surg. Res., 82:61-66; Frid et al., 1997, Circ. Res., 81:940-952; Frid et al., Arterioscler Throb Vasc Biol 17:1203-1209,1997; Hatzi et al., 1999, Eur. J. Biochem., 260:825-832; Stenmark et al., Chest 114:82S-90S, 1998; Takahashi et al., Circ Res 84:543-550, 1999; Underwood et al., 1998, J. Vasc. Res., 35:449-460), and are useful for assessing vascular smooth muscle cell proliferation, migration and contraction. […] Specifically, H89 results in loss of SMC “spindle shape” representative of differentiated, contractile phenotype.

[2] = test system: CREB-dependent promoter transactivation in BASMC; experiment: CREB-dependent Gal4-TKluc reporter in BASMC; assay type: cell-based, bovine; details: for CREB-dependent promoter transactivation: insulin 100 nM, glucose 25 mM
Experimental: Isoproterenol is well documented to act through cAMP, yet no studies defining its impact on CREB transactivation in SMCs have been reported. In the next experiment, the ability of ISO to drive a CREB dependent reporter construct was determined. BASMC were transfected with Gal4-TKluc plasmid containing the Gal4 promoter and a thymidine kinase enhancer upstream of the gene encoding a luciferase reporter. These cells were cotransfected with control plasmid (pUC19), a plasmid encoding the Gal4 protein alone, or plasmids encoding chimeric Gal4 proteins with either wild type CRF-B (pZI-Gal4-TKluc) or Ser 133 mutated CREB (SeYI33). […] Of note, basal PKA mediated CRE reporter transcription is very high in these cells and is blocked by the PKA inhibitor H89.

P-CREB/CREB in BASMC = experiment: Acute CREB phosphorylation in BASMC; assay type: cell-based, bovine; details: acute treatment, confluent BASMC serum starved 48 hours
Experimental: A series of experiments was performed to determine the ability of insulin, IGF-1 and ISO to acutely enhance CREB phosphorylation in BASMC. BASMC were grown to confluence, ss for 48 hours, and acutely treated with insulin, IGF-1, or Iso in the concentrations noted in FIG. 12A-12C.

BASMC migration = experiment: SMC migration, Boyden chamber; assay type: cell-based, bovine; details: high glucose 25 mM vs 5 mM, 48 h
Experimental: BASMC were grown to 70% confluence and serum starved for 48 hours. Cells were then treated with 0.1 uM PDGF and assessed for thymidine incorporation (FIG. 10A) and migration (FIG. 10B) as follows. […] Migratory behavior of SMC cells was assessed using a 12 well micro-Boyden chamber apparatus (Transwell Apparatus, Costar, Corning, N.Y.). […] Wells were covered with a Type I collagen-coated PVP-free filter with 8 mm pores (Transwell Apparatus, Costar, Corning, N.Y.). Trypsinized cells were resuspended in serum-free medium containing either chemotactic compounds or vehicle, and plated at a density of 25,000 or 50,000 cells per well in a volume of 100 μL. At the end of the incubation, cells attached to the filter were fixed and stained in Dif Quick (American flospital Supply Corp., McGraw Park, Ill.).

CREB in BASMC = experiment: CREB content and phosphorylation in BASMC exposed to high glucose or high insulin; assay type: cell-based, bovine; details: 72 hours exposure
Experimental: Studies were undertaken in BASMC to examine the impact of high glucose (HG) and/or high insulin (HI) on CREB and ICER content. BASMC were grown to confluence, ss for 24 hours, then treated with the concentrations of insulin and/or glucose.

ICER in BASMC = experiment: ICER protein and mRNA content in BASMC exposed to glucose and insulin; assay type: cell-based, bovine; details: for ICER protein content: 72 hour; for ICER mRNA: glucose (5 and 25 mM) and insulin (3 and 100 nM), 72 h
Experimental: Next, BASMCs were exposed to either 3 nM or 100 nM insulin for 72 hours and analyzed for mRNA content of ICER. ICER protein was induced by physiological doses of glucose and insulin. […] BASMC were cultured to 90% confluence and treated with glucose (5 and 25 mM) and insulin ([…]) for 72 h. Total RNA was isolated from these cells using Qiagen's RNeasy kit. RNA samples were fractionated on denaturing 1.2% agarose-formaldehyde gels and transferred to Hybond N+ membrane. ICER IIγ CDNA probe was labeled with thermostable alkaline phosphatase using the AlkPhos-Direct kit from Amersham Lifesciences (Buckinghamshire, England). Hybridization, washing and detection by CDP-Star were performed according to manufacturer's protocol.

[3] = test system: NIH 3T3-L1 preadipocyte cell lines; experiment: Adipocyte differentiation assay, Oil Red O staining of triacylglycerol; assay type: cell-based
Experimental: Differentiation assays were performed on cells growing on 8 chamber microscope slides. […] The cells were treated with a differentiation mixture, muristerone, or both. […] Muristerone was added to medium at a final concentration of 10 uM for the entire 10 day differentiation period. After 10 days in culture, the cells were stained with Oil Red 0 to visualize triacylglycerol vesicles as previously described (Klemm et al., 1998, J. Biol. Chem., 273:917-923), and counterstained with hematoxylin to visualize cell morphology. Cells were observed by brightfield microscopy and representative fields, were photographed.

[4] = test system: putative CRE sequences of adipocyte-specific gene promoters; experiment: Gel retardation assay of recombinant CREB with putative CRE oligonucleotides; assay type: binding; details: twenty base pair double stranded 32P-labeled oligonucleotides
Experimental: Next, the ability of purified, recombinant CREB to bind double stranded oligonucleotide probes of these sequences in gel retardation assays was tested as previously described in Klemm et al., 1998, J. Biol. Chem., 273:917-923. Twenty base pair, double stranded nucleotides, end labeled with y32P-ATP and polynucleotide kinase, were incubated with purified, recombinant 30 CREB protein. The reactions were separated on nondenaturing, 6% polyacrylamide gels and exposed to Kodak X-ARomat film. […] In these experiments, 5 ug of nuclear extract protein prepared from 3T3-L1 fibroblasts was incubated with the indicated, labeled oligonucleotides either in the absence (−) or presence (+) of CREB specific antibody. The reactions were separated on polyacrylamide gels as described above and exposed to film. […] Obviously, CREB may not bind to some of the tested sequences in the context of their native promoter environment or under conditions found within the cell. Alternately, CREB may interact with the putative CRE sites we have tested in the PPARγ2 and CEBP α promoters under different conditions, or perhaps bind to other sequences in these promoters not identified by visual inspection.

BASMC = experiment: Cell cycle phase by fluorescence flow cytometry (Krishan's stain) in BASMC with inducible WT CREB; assay type: cell-based, bovine; details: muristerone-induced expression; 0.1 or 10% serum
Experimental: BASMC were stably transfected with the muristerone-inducible wild-type CREB (WT CREB) expression vector. They were then exposed to serum at 0.1 or 10% with and with exposure to muristerone to induce CREB expression. FIGS. 8A-8D show control cells on the left and muristerone cells on the right. Cells were incubated with Krishan's stain and subjected to fluorescence flow cytometry to assess proliferative capacity to determine phase in the cell cycle. […] This peak was smaller in the cells incubated in low serum. […] The stably transfected clone served as its own control. Preliminary studies were next undertaken to investigate the impact of adenoviral infection with constitutively active CREB (adVP16 CREB) on CRE driven gene expression, proliferation, and migration.

Molecule: O=S(=O)(NCCNC/C=C/c1ccc(Br)cc1)c1cccc2cnccc12 [H89]
- α SM actin content ([1]; 0-10 uM, 72 hours): decreased α SM actin content
- cellular morphology ([1]; 10 uM, 4, 8 and 24 hours, relative to untreated control): significant alterations in cellular morphology
- basal PKA mediated CRE reporter transcription [2]: blocked
- endogenous CREB kinase activity (Gal4-CREB reporter) ([2]; PKA inhibitor treatment): attenuates high endogenous CREB kinase activity

Molecule: CC(C)NCC(O)c1ccc(O)c(O)c1 (centres unmarked) [Iso, Isoproterenol]
- P-CREB/CREB content (P-CREB/CREB in BASMC): acutely increases P-CREB/CREB content

Molecule: OC[C@H]1OC(O)[C@H](O)[C@@H](O)[C@@H]1O (some centres unmarked) [glucose]
- cell migration in Boyden Chamber (BASMC migration): increased cell migration
- CREB phosphorylation (PCREB) (CREB in BASMC): delayed increases in PCREB
- change in CREB protein content (CREB in BASMC): −32%
- ICER protein content (ICER in BASMC): induced ICER protein
- ICER mRNA (ICER in BASMC): increase in ICER mRNA
- CREB-dependent promoter transactivation [2]: attenuates this activity

Molecule: CC(C)CC[C@@H](O)[C@](C)(O)[C@H]1CC[C@@]2(O)C3=CC(=O)[C@]4(O)C[C@@H](O)[C@@H](O)C[C@]4(C)[C@H]3[C@H](O)C[C@]12C [muristerone, reference compound]
- triacylglycerol accumulation (Oil Red O) in control cells ([3]; control cells (pVgRXR, pIND-LacZ), 10 uM muristerone alone, 10 days): No triacylglycerol accumulation

Molecule: IGF-1: insulin growth factor I
- P-CREB/CREB content (P-CREB/CREB in BASMC): acutely increases P-CREB/CREB content

Molecule: Recombinant CREB: purified, recombinant CREB protein
- binding to promoter probes of PEPCK, FABP, FAS, SCD and CEBP genes [4]: able to bind

Molecule: WT CREB: wild-type CREB expressed from muristerone-inducible vector or adenovirus
- cell cycle phase (BASMC): cell cycle arrest

Molecule: insulin: insulin; high insulin (HI)
- triacylglycerol accumulation in VP16-CREB-expressing cells ([3]; muristerone induced cells also treated with insulin, versus muristerone alone): triacylglycerol accumulation was enhanced
- CREB phosphorylation (PCREB) (CREB in BASMC): increased CREB phosphorylation
- change in CREB protein content (CREB in BASMC): −24%
- ICER protein content (ICER in BASMC): decreased ICER content
- ICER mRNA (ICER in BASMC): increase in ICER mRNA
- P-CREB/CREB content (P-CREB/CREB in BASMC): acutely increases P-CREB/CREB content
- transcriptional activation of CREB in presence of H89 ([2]; PKA inhibited with H89): clear dose-dependent transcriptional activation of CREB
- CREB-dependent promoter transactivation [2]: increases CREB-dependent promoter transactivation
